# Measured values published in patent US11932638B2, “Ion channel inhibitor compounds for cancer treatment” (Centre National de la Recherche Scientifique, priority 2017, dated 2024).
# Where two headings read alike, the source gives them in different places.
# Biological target: T1, SK3 channel (Rattus norvegicus, UniProt P70605)
# T1 construct: expressed in transfected cells
# Experiment: Conventional manual patch clamp on HEK-rSK3 cells, SK3 channel activity
# Type: cell-based
# Settings: for inhibition at 0.5 µM: 500 nM
# Text: Cell Lines Used to Screen the Molecules on the Activity of SKCa Channels (Small Conductance Calcium-Activated Potassium Channel; SK1, SK2 and SK3) and IKCa Channels (Intermediate Conductance Calcium-Activated Potassium Channel, SK4)
# Use was made of the HEK 293 T line, a foetal kidney line which was immortalised with the T antigen of the […] simian virus. This cell line is widely used on account of the ease with which these cells can be transfected with plasmids or other transfection vectors. Four stable lines were used for patch clamp experiments: HEK-hSK1, HEK-rSK2, HEK-rSK3 and HEK-IKCa/SK4 which respectively overexpress the SK1, SK2, SK3 and SK4 channels. The lines were obtained via stable transduction (Girault et al., Current Cancer Drug Targets, 2011, 11, 1111-25) and are those already routinely used to assay SK3 modulators (Potier et al. Br J Pharmacol. 2011 January; 162(2):464-79; Sevrain et al., Med. Chem. Commun., 2012, 3, 1471-1478; Sevrain et al., Organic & Biomolecular Chemistry, 2013 Jul. 21; 11(27):4479-87, Berthe W, Sevrain C M, Chantôme A, Bouchet A M, Gueguinou M, Fourbon Y, Potier-Cartereau M, Haelters J P, Couthon-Gourvès H, Vandier C, Jaffrès P A. ChemMedChem. 2016 Jul. 19; 11(14):1531-9). […] These lines therefore enabled us without difficulty to examine the effect of the molecules on the SK3 channel, and also the selectivity thereof by means of the patch clamp technique. The inhibitory activity of the non-toxic molecules was assayed on the activity of the SK3 channel. The selectivity of the molecules was determined by patch clamp on HEK cell models stably expressing the SK3 channel but also the SK1, SK2, SK3 or IKCa/SK4 channels.
# Electrophysiology/Patch-Clamp
# Patch clamp is a technique allowing measurement of the activity of ion channels by recording macroscopic (whole cell configuration) or microscopic (e.g. inside out configuration) ionic currents through the plasma membrane. For assay of the effect of the molecules on the SKCa/IKCa channels, two complementary techniques were used: conventional, manual patch clamp and automated patch clamp with the Nanion NPC-16 Patchliner Quattro (4 channels) (Potier et al., Mol Cancer Ther 2006, 5, 2946-53; Chantome et al., Exp Cell Res 2009, 315, 3620-30; Potier et al., Biochem Biophys Res Commun 2010, 397, 42-7; Girault et al., Current Cancer Drug Targets, 2011, 11, 1111-25; Sevrain et al., Med. Chem. Commun., 2012, 3, 1471-1478; Sevrain et al., Organic & Biomolecular Chemistry, 2013 Jul. 21; 11(27):4479-87; Chantome et al., Cancer Research, 2013 Aug. 1; 73(15):4852-61, Gueguinou M, Crottès D, Chantôme A, Rapetti-Mauss R, Potier-Cartereau M, Clarysse L, Girault A, Fourbon Y, Jézéquel P, Guérin-Charbonnel C, Fromont G, Martin P, Pellissier B, Schiappa R, Chamorey E, Mignen O, Uguen A, Borgese F, Vandier C, Soriani O. Oncogene. 2017 Jan. 23. doi: 10.1038/onc.2016.501, Berthe W, Sevrain C M, Chantôme A, Bouchet A M, Gueguinou M, Fourbon Y, Potier-Cartereau M, Haelters J P, Couthon-Gourvès H, Vandier C, Jaffrès P A. ChemMedChem. 2016 Jul. 19; 11(14):1531-9, Guéguinou M, Harnois T, Crottes D, Uguen A, Deliot N, Gambade A, Chantôme A, Haelters J P, Jaffrès P A, Jourdan M L, Weber G, Soriani O, Bougnoux P, Mignen O, Bourmeyster N, Constantin B, Lecomte T, Vandier C, Potier-Cartereau M. Oncotarget. 2016 Jun. 14; 7(24):36168-36184. doi: 10.18632/oncotarget.8786).
# For conventional patch clamp, the micropipette is filled with an intrapipette medium—IPM (see composition below) and allows measurement of ionic currents at the same time as allowing maintaining of membrane potential (voltage clamp). The experimental device was composed of an anti-vibration table supporting an inverted microscope (Nikon, Eclipse TE 300). The Petri dish (Corning Incorporated, USA), containing the cells was placed on a plexiglass plate attached to the microscope stage. The pipette was connected to the amplifier (Axopatch 200B) as reference electrode which allowed closing of the electrical circuit. […]
inhibition at 10 µM (10 μM) [%],inhibition at 0.05 µM (50 nM) [%],inhibition at 0.5 µM [%],inhibition at 0.1 µM (100 nM) [%],Compound,other results
3.6,–,–,–,"Clc1ccc(CNc2ncc3ncccc3n2)cc1Cl [Compound 4, N-(3,4-Dichlorobenzyl)pyrido[3,2-d]pyrimidin-2-amine]",–
7.7,–,–,–,"c1ccc2c(c1)CCCC2Nc1ncc2ncccc2n1 (stereo not drawn) [Compound 5, N-(1,2,3,4-Tetrahydronaphthalen-1-yl)pyrido[3,2-d]pyrimidin-2-amine]",–
2.65,–,–,–,"Clc1nc(NC2CCCc3ccccc32)c2ncccc2n1 (stereo not drawn) [Compound 6, 2-Chloro-N-(1,2,3,4-tetrahydronaphthalen-1-yl)pyrido[3,2-d]pyrimidin-4-amine]",–
1.52,–,–,–,"Clc1ccc(CNc2ncnc3cccnc23)cc1Cl [Compound 14, N-(3,4-Dichlorobenzyl)pyrido[3,2-d]pyrimidin-4-amine]",–
–,23.6,27.7,–,"N#Cc1nc(NC2CCCc3ccccc32)c2ncccc2n1 (stereo not drawn) [Compound 32, 4-(1,2,3,4-tetrahydronaphthalen-1-ylamino)pyrido[3,2-d]pyrimidine-2-carbonitrile]",–
71.5,30.5,–,53.2,"Nc1nc(NC2CCCc3ccccc32)c2ncccc2n1 (stereo not drawn) [Compound 33, N^4-(1,2,3,4-tetrahydronaphthalen-1-yl)pyrido[3,2-d]pyrimidine-2,4-diamine]",–
74,31.4,–,51.9,"Clc1cnc2c(NC3CCCc4ccccc43)ncnc2c1 (stereo not drawn) [Compound 38, 7-Chloro-N-(1,2,3,4-tetrahydronaphthalen-1-yl)pyrido[3,2-d]pyrimidin-4-amine]",–
7.54,–,–,–,"c1ccc2c(c1)CCCC2Nc1ncnc2ncccc12 (stereo not drawn) [Compound 47, N-(1,2,3,4-Tetrahydronaphthalen-1-yl)pyrido[2,3-d]pyrimidin-4-amine]",–
–,–,75.8,37.1,"Fc1nc(N[C@H]2CCCc3ccccc32)c2ncccc2n1 [Compound 49, (S)-2-Fluoro-N-(1,2,3,4-tetrahydronaphthalen-1-yl)pyrido [3,2-d]pyrimidin-4-amine]",inhibition at 0.25 µM (250 nM): 83.1%
54.4,32.1,–,46.8,"c1ccc2c(c1)OCCC2Nc1ncnc2cccnc12 (stereo not drawn) [Compound 62, N-(3,4-dihydro-2H-1-benzopyran-4-yl)pyrido[3,2-d]pyrimidin-4-amine]",–
–,–,39.3,35.3,"Cc1cc(C)n(-c2nc(NC3CCCc4ccccc43)c3ncccc3n2)n1 (stereo not drawn) [Compound 67, 2-(3,5-Dimethylpyrazol-1-yl)-N-tetralin-1-yl-pyrido[3,2-d]pyrimidin-4-amine]",inhibition at 1 µM (1 μM): 82.4%
–,18.4,48.5,–,"CCCCCCOc1cnc2c(NC3CCCc4ccccc43)ncnc2c1 (stereo not drawn) [Compound 74, 7-Hexoxy-N-tetralin-1-yl-pyrido[3,2-d]pyrimidin-3-ium-4-amine chloride]",–
–,-9.01,18,–,"c1ccc2c(Nc3ncnc4cccnc34)cccc2c1 [Compound 86, N-(1-Naphtyl)pyrido[3,2-d]pyrimidin-4-amine]",–
–,22.9,47.4,–,"c1ccc2c(c1)CCC2Nc1ncnc2cccnc12 (stereo not drawn) [Compound 87, N-(2,3-dihydro-1H-inden-1-yl)pyrido[3,2-d]pyrimidin-4-amine]",–
–,25.8,54.8,–,"COc1cccc2c1CCCC2Nc1ncnc2cccnc12 (stereo not drawn) [Compound 88, N-(5-methoxy-1,2,3,4-tetrahydronaphthalen-1-yl)pyrido[3,2-d]pyrimidin-4-amine]",–
–,16.1,39.9,–,"Fc1ccc2c(c1)C(Nc1ncnc3cccnc13)CCC2 (stereo not drawn) [Compound 90, N-(7-fluoro-1,2,3,4-tetrahydronaphthalen-1-yl)pyrido[3,2-d]pyrimidin-4-amine]",–
71.8,45.9,–,53.5,"CC1(C)CCC(Nc2ncnc3cccnc23)c2ccccc21 (stereo not drawn) [Compound 93, N-(4,4-dimethyl-1,2,3,4-tetrahydronaphthalen-1-yl)pyrido[3,2-d]pyrimidin-4-amine]",–
83.8,30.7,46.9,57.9,"COCOc1ccc2c(c1)CCCC2N (stereo not drawn) [Compound 103, 6-(Methoxymethoxy)-1,2,3,4-tetrahydronaphthalen-1-amine]",–
54.7,29.7,–,46.8,"OC1CCc2ccccc2C1Nc1ncnc2cccnc12 (stereo not drawn) [Compound 107, 1-(pyrido[3,2-d]pyrimidin-4-ylamino)-1,2,3,4-tetrahydro-naphthalen-2-ol]",–
67.3,39,–,56.3,"Clc1ccc2ncnc(N[C@H]3CCCc4ccccc43)c2n1 [Compound 133, 6-Chloro-N-[(1S)-tetralin-1-yl]pyrido[3,2-d]pyrimidin-4-amine]",–
–,35.3,–,–,"OC1CCC(Nc2ncnc3cccnc23)c2ccccc21 (stereo not drawn) [Compound 142-E1, 4-(Pyrido[3,2-d]pyrimidin-4-ylamino)tetralin-1-ol]","% SK3 inhibition (100 nM, 0.1 µM): 100 nM: 44.55 ± 5.67 (N = 5) %; % SK3 inhibition (10 μM): 10 μM: 57.16 ± 5.51 (N = 4) %"
–,–,–,–,"OC1CCC(Nc2ncnc3cccnc23)c2ccccc21 (stereo not drawn) [Compound 142-E2, 4-(Pyrido[3,2-d]pyrimidin-4-ylamino)tetralin-1-ol]","% SK3 inhibition (50 nM, 0.05 µM): 50 nM: 35.72 ± 1.79 (N = 4) %; % SK3 inhibition (100 nM, 0.1 µM): 100 nM: 59.42 ± 3.43 (N = 4) %; % SK3 inhibition (10 μM): 10 μM: 75.11 ± 2.87 (N = 4) %"
–,–,–,–,"OC1CCC(Nc2ncnc3cccnc23)c2ccccc21 (stereo not drawn) [Compound 142-E3, 4-(Pyrido[3,2-d]pyrimidin-4-ylamino)tetralin-1-ol]","% SK3 inhibition (50 nM, 0.05 µM): 50 nM: 30.69 ± 3.07 (N = 4) %; % SK3 inhibition (100 nM, 0.1 µM): 100 nM: 49.71 ± 4.48 (N = 4) %; % SK3 inhibition (10 μM): 10 μM: 58.9 ± 6.08 (N = 4) %"
–,–,–,–,"OC1CCC(Nc2ncnc3cccnc23)c2ccccc21 (stereo not drawn) [Compound 142-E4, 4-(Pyrido[3,2-d]pyrimidin-4-ylamino)tetralin-1-ol]","% SK3 inhibition: 10 μM: 48.28 ± 5.99 (N = 3) %; % SK3 inhibition (50 nM, 0.05 µM): 50 nM: 21.9 ± 2.32 (N = 3) %; % SK3 inhibition (100 nM, 0.1 µM): 100 nM: 37.97 ± 3.99 (N = 3) %"
61.2,24.4,–,41.5,"O=C1CCC(Nc2ncnc3cccnc23)c2ccccc21 (stereo not drawn) [Compound 152, 4-(Pyrido[3,2-d]pyrimidin-4-ylamino)tetralin-1-one]",–
54,32,–,51.1,"Fc1ccc2c(c1)CCCC2Nc1ncnc2cccnc12 (stereo not drawn) [Compound 157, N-(6-Fluorotetralin-1-yl)pyrido[3,2-d]pyrimidin-4-amine]",–
84.8,35.8,–,64.1,"Fc1cnc2c(N[C@H]3CCCc4ccccc43)ncnc2c1 [Compound 158, 7-Fluoro-N-[(1S)-tetralin-1-yl]pyrido[3,2-d]pyrimidin-4-amine]",–
